Laboratory results as given in patent US8853424B2 (Japan Science and Technology Agency, priority 2008, dated 2014).
Read-outs that look alike come from different tables or passages of the source.

Tests used:
[1] = system: Truncated N-terminal huntington 150 Q-EGFP-Neuron 2a cells; experiment: Measurement of x-Fold (polyglutamine aggregation inhibitory activity); type: cell-based
Protocol: In the present invention, the polyglutamine aggregation inhibitory activity (x-Fold) can be measured, for example, by the method described in the Example.
The number of the aggregated cells, and the total number of cells were counted by Array Scan V T1 (manufactured by Cellomics, Pittuburg, USA), and the ratio of the aggregated cells to the total number of cells was determined (x-Fold). […]

transglutaminase (TGase) = experiment: Measurement of TG (TGase inhibitory activity, monodansyl cadaverine / N,N-dimethylcasein fluorescence, FDSS 3000); type: biochemical
In short: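 Compound (1 μL of 10 mM stock) added to 0.1 mL reaction: 100 mM HEPES-NaOH pH 7.5, 1 mM CaCl2, 20 μM monodansyl cadaverine, 0.05 mg/mL N,N-dimethylcasein, 5 μg/mL TGase. Rate of fluorescence change at 340 nm measured; DMSO control set to 100; TG50 is the concentration halving activity.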

[2] = system: SOC (store operated calcium channel); experiment: Measurement of SOC IC50 (thapsigargin store depletion, calcium re-addition, CHO cells); type: cell-based; settings: read-out: SOC IC50
Protocol: The SOC (store operated calcium channel)-suppressive action can be measured by the method described in the Example and using, for example, FDSS 3000.
CHO cell culture medium was replaced with a BSS solution which is an extracellular fluidfree of calcium, the compound of the present invention was added 1 min later, and 1 μM thapsigargin was allowed to act thereon 2 min later to deplete intracellular calcium store. […]

[3] = polyglutamine aggregation inhibitory activity, Table 1
[4] = ratio of aggregated cells to total number of cells, compound 20 μM, 20 hr, almost 1 without compound, smaller = stronger inhibition
[5] = TGase activity with compound (10 mM, 1 μL in 0.1 ml enzyme reaction solution), DMSO control taken as 100
[6] = TGase inhibitory activity value, Table 1
[7] = Cricetulus griseus, CHO, CHO cells, 1 μM thapsigargin, 2 mM calcium chloride
[8] = Cricetulus griseus, CHO, Table 1
[9] = polyglutamine aggregation, Truncated N-terminal huntington 150 Q-EGFP-Neuron 2a cells
[10] = TGase inhibitory activity measurement, unit not given
[11] = CHO cells, 1 μM thapsigargin, 2 mM calcium chloride

TGase activity remaining (% of DMSO control = 100) (transglutaminase (TGase); [5]) | TGase activity remaining (% of DMSO control = 100) (transglutaminase (TGase); [6]) | IC50 [2, 7] [nM] | IC50 [2, 8] [nM] | TGase activity remaining (% of DMSO control = 100) (transglutaminase (TGase); [10]) | IC50 [2, 11] [nM] | IC50 ([2]; Table 1) [nM] | TGase activity remaining (% of DMSO control = 100) (transglutaminase (TGase); TGase inhibitory activity value, Table 1, listed as 7085) | TGase activity remaining (% of DMSO control = 100) (transglutaminase (TGase); TGase inhibitory activity measurement, unit not given, listed as 2023) | IC50 ([2]; Cricetulus griseus, CHO, CHO cells, thapsigargin store depletion) [nM] | SMILES | x-Fold [1, 3] | x-Fold [1, 4] | x-Fold [1, 9] | x-Fold ([1]; polyglutamine aggregation inhibitory activity, Table 1, listed as 7085) | x-Fold ([1]; polyglutamine aggregation, Truncated N-terminal huntington 150 Q-EGFP-Neuron 2a cells, listed as 2023)
109 | 109 | 500 | 500 |  |  |  |  |  |  | Cc1ccc(B(OC(c2ccccc2)C(N)c2ccccc2)c2ccc(C)c(Cl)c2)cc1Cl (centres unmarked) [Example 225] | 1.03 | 1.03 |  |  | 
93 | 93 | 500 | 500 |  |  |  |  |  |  | OB(c1ccccc1)c1ccc(B(O)c2ccccc2)cc1 [Example 252, 1,4-bis(phenylhydroxyboryl)benzene] | 0.95 | 0.95 |  |  | 
43 |  |  |  | 43 | 400 | 1500 |  |  |  | NCC(OB(c1ccccc1)c1ccc(Oc2ccc(B(OC(CN)c3ccccc3)c3ccccc3)cc2)cc1)c1ccccc1 (centres unmarked) [Example 434, bis(4,4′-(phenyl-2-amino-1-phenylethoxyboryl)phenyl)ether] | 0.06 | 0.60 | 0.60 |  | 
12 | 12 | 1000 | 1000 |  |  |  |  |  |  | Cc1ccc(B(SCCN)c2ccc(C)c(Cl)c2)cc1Cl [Example 32, di(3-chloro-4-methylphenyl)-2-aminoethylthioborane] | 1.02 | 1.02 |  |  | 
40 | 40 | 500 | 500 |  |  |  |  |  |  | CCC(N)COB(c1ccc(C)c(Cl)c1)c1ccc(C)c(Cl)c1 (centres unmarked) [Example 229, di(3-chloro-4-methylphenyl) 2-aminobutylborinate] | 1.09 | 1.09 |  |  | 
93 | 93 | 2000 | 2000 |  |  |  |  |  |  | NCCOB(c1ccccc1)c1ccc(B(OCCN)c2ccccc2)cc1 [Example 118, 1,4-bis(phenyl-2-aminoethoxyboryl)benzene] | 0.97 | 0.97 |  |  | 
50 | 50 | 500 | 500 |  |  |  |  |  |  | Cc1ccc(B(OC(=O)C(N)C(C)O)c2ccc(C)c(Cl)c2)cc1Cl (centres unmarked) [Example 291, di(3-chloro-4-methylphenyl)(allothreoninate-O,N)borane] | 1.02 | 1.02 |  |  | 
51 | 51 | 2000 | 2000 |  |  |  |  |  |  | NCCSB(c1ccc(C(F)(F)F)cc1)c1ccc(C(F)(F)F)cc1 [Example 285, di(4-trifluoromethylphenyl) 2-aminoethylthioborane] | 0.99 | 0.99 |  |  | 
19 |  |  |  | 19 | 1200 |  |  |  |  | NCCOB(c1ccc(COCc2ccc(B(OCCN)c3ccc(C(F)(F)F)cc3)cc2)cc1)c1ccc(C(F)(F)F)cc1 [Example 426, bis(4,4′-(p-trifluoromethylphenyl-aminoethoxyboryl)benzyl)ether] |  | 0.93 | 0.93 |  | 
26 |  |  |  | 26 | 2000 |  |  |  |  | NCCCC(N)C(=O)OB(c1ccccc1)c1ccc(Oc2ccc(B(OC(=O)C(N)CCCN)c3ccccc3)cc2)cc1 (centres unmarked) [Example 435, bis(4,4′-(phenyl-ornithineboryl)phenyl)ether] |  | 0.84 | 0.84 |  | 
41 | 41 | 500 | 500 |  |  |  |  |  |  | Cc1ccc(B(OCCN2CCNCC2)c2ccc(C)c(Cl)c2)cc1Cl [Example 72, di(3-chloro-4-methylphenyl)piperazinoethoxyborane] | 1.02 | 1.02 |  |  | 
130 |  |  |  |  | 500 |  |  |  |  | NC(=O)CC(N)C(=O)OB(c1ccc(COCc2ccc(B(OC(=O)C(N)CC(N)=O)c3ccc(C(F)(F)F)cc3)cc2)cc1)c1ccc(C(F)(F)F)cc1 (centres unmarked) [Example 425, bis(4,4′-(p-trifluoromethylphenyl-asparagineboryl)benzyl)ether] |  | 0.9 |  |  | 
21 | 21 | 200 | 200 |  |  |  |  |  |  | NCCOB(c1ccccc1)c1ccc(COCc2cccc(B(OCCN)c3ccccc3)c2)cc1 [Example 332, (3-(phenylaminoethoxyboryl)benzyl)(4-(phenylaminoethoxyboryl)benzyl)ether] | 0.98 | 0.98 |  |  | 
41 |  |  |  |  | 500 |  | 41 |  |  | NC(=O)CCC(N)C(=O)OB(c1ccccc1)c1ccc(Oc2ccc(B(OC(=O)C(N)CCC(N)=O)c3ccccc3)cc2)cc1 (centres unmarked) [Example 388, bis(4,4′-(phenyl-glutamineboryl)phenyl)ether] |  | 0.67 |  | 0.67 | 
84 |  |  |  | 84 | 3000 |  |  |  |  | c1ccc(COB(c2ccc(Oc3ccc(B(OCc4ccccn4)c4cccc5ccccc45)cc3)cc2)c2cccc3ccccc23)nc1 [Example 443, bis(4,4′-(naphthyl-2-pyridylmethoxyboryl)phenyl)ether] |  | 0.63 | 0.63 |  | 
107 | 107 | 800 | 800 |  |  |  |  |  |  | Cc1ccc(B(SCCN(C)C)c2ccc(C)c(Cl)c2)cc1Cl [Example 295, di(3-chloro-4-methylphenyl)dimethylaminoethylthioborane] | 0.92 | 0.92 |  |  | 
52 |  |  |  |  | 500 |  |  |  |  | OB(c1ccccc1)c1ccccc1COCc1ccccc1B(O)c1ccccc1 [Example 486, bis(2,2′-(phenylhydroxyboryl)benzyl)ether] |  | 1.04 |  |  | 
105 | 105 | 300 | 300 |  |  |  |  |  |  | O=C(OB(c1ccccc1)c1ccccc1)C1CCCN1 (centres unmarked) [Example 277, diphenyl(prolinate-O,N)borane] | 0.98 | 0.98 |  |  | 
35 | 35 | 1200 | 1200 |  |  |  |  |  |  | Cc1ccc(B(OCCN2CCCCC2)c2ccc(C)c(Cl)c2)cc1Cl [Example 73, di(3-chloro-4-methylphenyl)piperidinoethoxyborane] | 0.85 | 0.85 |  |  | 
93 | 93 | 7000 | 7000 |  |  |  |  |  |  | N=C(N)NCCCC(N)C(=O)OB(c1ccccc1)c1ccccc1 (centres unmarked) [Example 122, diphenyl(argininate-O,N)borane] | 0.98 | 0.98 |  |  | 
41 | 41 | 1500 | 1500 |  |  |  |  |  |  | NC(=O)CCC(N)C(=O)OB(c1ccccc1)c1ccc(Oc2ccc(B(OC(=O)C(N)CCC(N)=O)c3ccc(CO)cc3)cc2)cc1 (centres unmarked) [Example 394, (4-(phenyl-glutamineboryl)phenyl)(4′-(hydroxymethylphenyl-glutamineboryl)phenyl)ether] | 0.44 | 0.44 |  |  | 
105 |  | 4000 |  |  |  |  |  | 105 | 4000 | NC(=O)CC(N)C(=O)OB(c1ccccc1)c1cccc(COCc2cccc(B(OC(=O)C(N)CC(N)=O)c3ccccc3)c2)c1 (centres unmarked) [Example 404, bis(3,3′-(phenyl-asparagineboryl)benzyl)ether] |  | 1.07 |  |  | 1.07
3 | 3 |  |  |  | 1200 |  |  |  |  | NCCNCCOB(c1ccccc1)c1ccc(Oc2ccc(B(OCCNCCN)c3ccccc3)cc2)cc1 [Example 396, bis(4,4′-(phenyl-N-aminoethyl-aminoethoxyboryl)phenyl)ether] | 0.58 | 0.58 |  |  | 
130 |  |  |  |  | 2000 |  |  |  |  | COc1ccc(B(O)c2ccc(COCc3ccc(B(O)c4ccc(OC)cc4)cc3)cc2)cc1 [Example 410, bis(4,4′-(p-methoxy-phenyl-hydroxyboryl)benzyl)ether] |  | 0.90 |  |  | 
